In patent US20230218563A1, “METHODS FOR TREATING OR PREVENTING CHRONIC KIDNEY DISEASE” (Arthrosi Therapeutics, Inc., priority 2020, published 2023):

System: serum uric acid (sUA)
Test: Phase 1 single dose study, pharmacodynamics (serum uric acid) in healthy adult males
Type: in vivo, human
Experimental: The dose groups included Cohort 1 (15 mg or placebo, fasted, oral suspension), Cohort 2 (50 mg or placebo, fasted, suspension), Cohort 3 (100 mg or placebo, fasted, oral suspension), Cohort 4 (150 mg or placebo, fasted, oral suspension), Cohort 6 (50 mg or placebo, fed, oral suspension), and Cohort 7 (50 mg or placebo, fasted, oral capsule). […] An additional 8 subjects received placebo.
Decrease in sUA appeared to reach a plateau at 100 mg or lower.

[1] = 15 mg single oral, fasted, 12 h
[2] = 15 mg single oral, fasted, 30 h
[3] = 15 mg single oral, fasted, 36 h
[4] = 15 mg single oral, fasted, 48 h
[5] = 15 mg single oral, fasted, 54 h
[6] = 15 mg single oral, fasted, 60 h
[7] = 15 mg single oral, fasted, 72 h
[8] = 15 mg single oral, fasted, 96 h
[9] = 15 mg single oral, fasted, 120 h
[10] = 50 mg single oral, fasted, Capsule, 6 h
[11] = 50 mg single oral, fasted, Capsule, 12 h
[12] = 50 mg single oral, fasted, Capsule, 24 h
[13] = 50 mg single oral, fasted, Capsule, 30 h
[14] = 50 mg single oral, fasted, Capsule, 36 h
[15] = 50 mg single oral, fasted, Capsule, 48 h
[16] = 50 mg single oral, fasted, Capsule, 54 h
[17] = 50 mg single oral, fasted, Capsule, 60 h
[18] = 50 mg single oral, fasted, Capsule, 72 h
[19] = 50 mg single oral, fasted, Capsule, 96 h
[20] = 50 mg single oral, fasted, Capsule, 120 h
[21] = 50 mg single oral, fasted, 12 h
[22] = 50 mg single oral, fasted, 24 h
[23] = 50 mg single oral, fasted, 30 h
[24] = 50 mg single oral, fasted, 36 h
[25] = 50 mg single oral, fasted, 48 h
[26] = 50 mg single oral, fasted, 54 h
[27] = 50 mg single oral, fasted, 60 h
[28] = 50 mg single oral, fasted, 72 h
[29] = 50 mg single oral, fasted, 96 h
[30] = 50 mg single oral, fasted, 120 h

## [2H]c1c([2H])c([2H])c2c(C(=O)c3cc(Br)c(O)c(Br)c3)c(C(C)O)oc2c1[2H] (racemic) [Compound 1, (3,5-dibromo-4-hydroxyphenyl)(2-(1-hydroxyethyl)benzofuran-3-yl-4,5,6,7-d4)methanone]
15 mg single oral, fasted, 6 h
  Percent change in serum uric acid, mean, time-matched (Day-1) baseline: 2.7%
  Serum uric acid, mean: 5.4 mg/dL
[1]
  Percent change in serum uric acid, mean, time-matched (Day-1) baseline: 8.7%
  Serum uric acid, mean: 5.1 mg/dL
15 mg single oral, fasted, 24 h
  Serum uric acid, mean: 5.1 mg/dL
[2]
  Percent change in serum uric acid, mean, time-matched (Day-1) baseline: 0.7%
  Serum uric acid, mean: 5.2 mg/dL
[3]
  Percent change in serum uric acid, mean, time-matched (Day-1) baseline: −1.4%
  Serum uric acid, mean: 4.6 mg/dL
[4]
  Percent change in serum uric acid, mean, time-matched (Day-1) baseline: −4.4%
  Serum uric acid, mean: 5.2 mg/dL
[5]
  Percent change in serum uric acid, mean, time-matched (Day-1) baseline: −1.5%
  Serum uric acid, mean: 5.1 mg/dL
[6]
  Percent change in serum uric acid, mean, time-matched (Day-1) baseline: 10.0%
  Serum uric acid, mean: 5.2 mg/dL
[7]
  Percent change in serum uric acid, mean, time-matched (Day-1) baseline: 3.6%
  Serum uric acid, mean: 5.6 mg/dL
[8]
  Percent change in serum uric acid, mean, time-matched (Day-1) baseline: 7.8%
  Serum uric acid, mean: 5.8 mg/dL
[9]
  Percent change in serum uric acid, mean, time-matched (Day-1) baseline: 13.0%
  Serum uric acid, mean: 6.1 mg/dL
[10]
  Percent change in serum uric acid, mean, time-matched (Day-1) baseline: −26.9%
  Serum uric acid, mean: 4.0 mg/dL
[11]
  Percent change in serum uric acid, mean, time-matched (Day-1) baseline: −37.5%
  Serum uric acid, mean: 3.4 mg/dL
[12]
  Percent change in serum uric acid, mean, time-matched (Day-1) baseline: −38.3%
  Serum uric acid, mean: 3.7 mg/dL
[13]
  Percent change in serum uric acid, mean, time-matched (Day-1) baseline: −36.9%
  Serum uric acid, mean: 3.4 mg/dL
[14]
  Percent change in serum uric acid, mean, time-matched (Day-1) baseline: −34.1%
  Serum uric acid, mean: 3.6 mg/dL
[15]
  Percent change in serum uric acid, mean, time-matched (Day-1) baseline: −32.4%
  Serum uric acid, mean: 4.1 mg/dL
[16]
  Percent change in serum uric acid, mean, time-matched (Day-1) baseline: −28.1%
  Serum uric acid, mean: 3.9 mg/dL
[17]
  Percent change in serum uric acid, mean, time-matched (Day-1) baseline: −21.0%
  Serum uric acid, mean: 4.3 mg/dL
[18]
  Percent change in serum uric acid, mean, time-matched (Day-1) baseline: −17.8%
  Serum uric acid, mean: 4.9 mg/dL
[19]
  Percent change in serum uric acid, mean, time-matched (Day-1) baseline: −11.2%
  Serum uric acid, mean: 5.3 mg/dL
[20]
  Percent change in serum uric acid, mean, time-matched (Day-1) baseline: −12.5%
  Serum uric acid, mean: 5.2 mg/dL
50 mg single oral, fasted, 6 h
  Percent change in serum uric acid, mean, time-matched (Day-1) baseline: −23.8%
  Serum uric acid, mean: 4.6 mg/dL
[21]
  Percent change in serum uric acid, mean, time-matched (Day-1) baseline: −33.6%
  Serum uric acid, mean: 3.9 mg/dL
[22]
  Percent change in serum uric acid, mean, time-matched (Day-1) baseline: −42.4%
  Serum uric acid, mean: 3.9 mg/dL
[23]
  Percent change in serum uric acid, mean, time-matched (Day-1) baseline: −33.5%
  Serum uric acid, mean: 4.1 mg/dL
[24]
  Percent change in serum uric acid, mean, time-matched (Day-1) baseline: −33.9%
  Serum uric acid, mean: 3.9 mg/dL
[25]
  Percent change in serum uric acid, mean, time-matched (Day-1) baseline: −35.8%
  Serum uric acid, mean: 4.3 mg/dL
[26]
  Percent change in serum uric acid, mean, time-matched (Day-1) baseline: −32.1%
  Serum uric acid, mean: 4.2 mg/dL
[27]
  Percent change in serum uric acid, mean, time-matched (Day-1) baseline: −24.2%
  Serum uric acid, mean: 4.5 mg/dL
[28]
  Percent change in serum uric acid, mean, time-matched (Day-1) baseline: −26.1%
  Serum uric acid, mean: 5.0 mg/dL
[29]
  Percent change in serum uric acid, mean, time-matched (Day-1) baseline: −9.6%
  Serum uric acid, mean: 6.0 mg/dL
[30]
  Percent change in serum uric acid, mean, time-matched (Day-1) baseline: −4.6%
  Serum uric acid, mean: 6.4 mg/dL
50 mg single oral, fed, 6 h
  Percent change in serum uric acid, mean, time-matched (Day-1) baseline: −20.3%
  Serum uric acid, mean: 4.8 mg/dL
50 mg single oral, fed, 12 h
  Percent change in serum uric acid, mean, time-matched (Day-1) baseline: −37.7%
  Serum uric acid, mean: 3.9 mg/dL
50 mg single oral, fed, 24 h
  Percent change in serum uric acid, mean, time-matched (Day-1) baseline: −41.9%
  Serum uric acid, mean: 3.8 mg/dL
